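Test compounds were applied to cells in 96-well plates for 48 hours at 5 doses. GI50 is the concentration that inhibits growth by half.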 The source made the active and inactive calls. Rule as the data show it: active = GI50 up to about 1.1 µM and inactive = higher.
Tests used:
Test in all cases: DTP human tumour cell line panel, 48 h
PC-3 = system: PC-3
RXF 393 = system: RXF 393
HT-29 = system: HT-29
SK-MEL-2 = system: SK-MEL-2
SNB-19 = system: SNB-19
OVCAR-4 = system: OVCAR-4
NCI-H23 = system: NCI-H23
K562 = system: K562
OVCAR-8 = system: OVCAR-8
SF-539 = system: SF-539
MDA-N = system: MDA-N
MOLT-4 = system: MOLT-4
TK-10 = system: TK-10
RPMI-8226 = system: RPMI-8226
OVCAR-5 = system: OVCAR-5
HCT-15 = system: HCT-15
HL-60 = system: HL-60
EKVX = system: EKVX
KM12 = system: KM12
BT-549 = system: BT-549

Row | Structure (SMILES) | GI50 (PC-3) | GI50 (RXF 393) | GI50 (HT-29) | GI50 (SK-MEL-2) | GI50 (SNB-19) | GI50 (OVCAR-4) | GI50 (NCI-H23) | GI50 (K562) | GI50 (OVCAR-8) | GI50 (SF-539) | GI50 (MDA-N) | GI50 (MOLT-4) | GI50 (TK-10) | GI50 (RPMI-8226) | GI50 (OVCAR-5) | GI50 (HCT-15) | GI50 (HL-60) | GI50 (EKVX) | GI50 (KM12) | GI50 (BT-549)
1 | CN(C)C(=S)N1C(=S)N(c2ccccc2)C(=N/c2ccccc2)/C1=N\c1ccccc1 | > 100 µM (inactive) | > 100 µM (inactive) | > 100 µM (inactive) | > 100 µM (inactive) | > 100 µM (inactive) | > 100 µM (inactive) | > 100 µM (inactive) | > 100 µM (inactive) | > 100 µM (inactive) | > 100 µM (inactive) | > 100 µM (inactive) | > 100 µM (inactive) | > 100 µM (inactive) | > 100 µM (inactive) | > 100 µM (inactive) | > 100 µM | > 100 µM (inactive) | > 100 µM (inactive) | > 100 µM (inactive) | –
2 | O=C1NCN(c2ccccc2)C12CCN(CC1COc3ccccc3O1)CC2 (stereo not given) [SPIROXATRINE] | 51.9 µM (inactive) | 29.9 µM (inactive) | > 100 µM (inactive) | 38.4 µM (inactive) | 30.3 µM (inactive) | 33.4 µM (inactive) | 44.3 µM (inactive) | > 100 µM (inactive) | 69.3 µM (inactive) | 62.5 µM (inactive) | > 100 µM (inactive) | > 100 µM (inactive) | 46.9 µM (inactive) | > 100 µM (inactive) | > 100 µM (inactive) | > 100 µM | > 100 µM (inactive) | 43.5 µM (inactive) | – | –
3 | COc1ccc(NC(=O)CC(=O)n2nc(-c3ccccc3)c(/N=N/c3ccccc3C)c2-c2ccccc2)cc1 | 17.1 µM (inactive) | 17.3 µM (inactive) | 44.9 µM (inactive) | 18.2 µM (inactive) | 25.2 µM (inactive) | 23.9 µM (inactive) | 22.1 µM (inactive) | > 79.8 µM (inactive) | 28 µM (inactive) | 15.1 µM (inactive) | > 100 µM (inactive) | > 64.1 µM (inactive) | 24.7 µM (inactive) | > 58.5 µM (inactive) | > 100 µM (inactive) | 35.5 µM | 54.6 µM (inactive) | 16.3 µM (inactive) | 53.3 µM (inactive) | –
4 | N#Cc1c(-c2ccccc2)[nH]c(=O)n(C2OC(CO)C(O)C(O)C2O)c1=O (stereo not given) | > 100 µM (inactive) | > 100 µM (inactive) | > 100 µM (inactive) | > 100 µM (inactive) | > 100 µM (inactive) | > 100 µM (inactive) | > 100 µM (inactive) | > 100 µM (inactive) | > 100 µM (inactive) | > 100 µM (inactive) | – | > 100 µM (inactive) | > 100 µM (inactive) | > 100 µM (inactive) | > 100 µM (inactive) | > 100 µM | – | > 100 µM (inactive) | > 100 µM (inactive) | > 100 µM (inactive)
5 | Fc1cccc(F)c1C1SCc2nc3cc4ccccc4cc3n21 (stereo not given) | 23 µM (inactive) | 28.4 µM (inactive) | 20.2 µM (inactive) | > 100 µM (inactive) | – | 3.16 µM (inactive) | 52.7 µM (inactive) | 12.1 µM (inactive) | 58.6 µM (inactive) | 17.2 µM (inactive) | 39 µM (inactive) | 15.3 µM (inactive) | 96.6 µM (inactive) | 6.92 µM (inactive) | 64 µM (inactive) | 16 µM | – | 54.6 µM (inactive) | 34 µM (inactive) | 8.71 µM (inactive)
6 | CCOC(=O)N/N=C(/OCC)c1ccccc1 | – | > 100 µM (inactive) | > 100 µM (inactive) | > 100 µM (inactive) | > 100 µM (inactive) | > 100 µM (inactive) | > 100 µM (inactive) | > 100 µM (inactive) | > 100 µM (inactive) | > 100 µM (inactive) | > 100 µM (inactive) | > 100 µM (inactive) | > 100 µM (inactive) | > 100 µM (inactive) | > 100 µM (inactive) | > 100 µM | > 100 µM (inactive) | > 100 µM (inactive) | > 100 µM (inactive) | > 100 µM (inactive)
7 | COC(=O)C(CNC(=O)/C=C/c1ccc(OC(C)=O)c(OC(C)=O)c1)NC(=O)/C=C/c1ccc(OC(C)=O)c(OC(C)=O)c1 (stereo not given) | > 100 µM (inactive) | > 100 µM (inactive) | > 100 µM (inactive) | > 100 µM (inactive) | 93.3 µM (inactive) | > 100 µM (inactive) | > 100 µM (inactive) | 64.1 µM (inactive) | > 100 µM (inactive) | > 100 µM (inactive) | > 100 µM (inactive) | 30 µM (inactive) | > 100 µM (inactive) | > 100 µM (inactive) | > 100 µM (inactive) | > 100 µM | – | > 100 µM (inactive) | > 100 µM (inactive) | > 100 µM (inactive)
8 | Nc1ncnc2c1ncn2C1C=CC(CP(=O)(O)O)C1 (stereo not given) | > 100 µM (inactive) | > 100 µM (inactive) | > 100 µM (inactive) | > 100 µM (inactive) | > 100 µM (inactive) | > 100 µM (inactive) | > 100 µM (inactive) | – | > 100 µM (inactive) | > 100 µM (inactive) | > 100 µM (inactive) | > 100 µM (inactive) | > 100 µM (inactive) | > 100 µM (inactive) | > 100 µM (inactive) | > 100 µM | – | > 100 µM (inactive) | > 100 µM (inactive) | –
9 | COc1cc(C2C3=C(CCCC3=O)N(c3ccc(C)cc3)C3=C2C(=O)CCC3)c([N+](=O)[O-])cc1OC | > 100 µM (inactive) | 30 µM (inactive) | 59.4 µM (inactive) | – | > 100 µM (inactive) | 45.4 µM (inactive) | > 100 µM (inactive) | 79.3 µM (inactive) | – | 61.1 µM (inactive) | – | 24.2 µM (inactive) | > 100 µM (inactive) | 57.3 µM (inactive) | > 100 µM (inactive) | 68.1 µM | 45.4 µM (inactive) | > 100 µM (inactive) | > 100 µM (inactive) | > 100 µM (inactive)
10 | Clc1ccc(CNc2nc(Cl)c3nc[nH]c3n2)cc1Cl | 21.6 µM (inactive) | 30.9 µM (inactive) | 26.4 µM (inactive) | 22.3 µM (inactive) | 34 µM (inactive) | 35.4 µM (inactive) | 22.4 µM (inactive) | 20.3 µM (inactive) | 17.9 µM (inactive) | 13.5 µM (inactive) | 26.4 µM (inactive) | 33.6 µM (inactive) | 12.2 µM (inactive) | – | > 100 µM (inactive) | 27 µM | – | 25.2 µM (inactive) | 29.2 µM (inactive) | 24.2 µM (inactive)
11 | C=CCOC(=O)N1c2ccc(O)cc2[C@@]23O[C@@]24[C@@H]1C#C/C=C\C#C[C@]3(O)C(OC)(OC)C[C@@H]4C | 24 µM (inactive) | 41.7 µM (inactive) | 21.7 µM (inactive) | 24.2 µM (inactive) | 58.2 µM (inactive) | 0.258 µM (active) | 24.4 µM (inactive) | 34.8 µM (inactive) | 32.5 µM (inactive) | 21.6 µM (inactive) | 28.8 µM (inactive) | 16.3 µM (inactive) | 29.9 µM (inactive) | 34.4 µM (inactive) | 75.9 µM (inactive) | 44.2 µM | 32.8 µM (inactive) | 53.2 µM (inactive) | 24.9 µM (inactive) | –
12 | COc1ccc(/C=C2\CN(C)CC3C2=NN(c2ccccc2)C3c2ccc(OC)cc2)cc1 (stereo not given) | – | 13 µM (inactive) | > 100 µM (inactive) | – | 27.2 µM (inactive) | > 100 µM (inactive) | > 100 µM (inactive) | > 100 µM (inactive) | 67.5 µM (inactive) | – | > 100 µM (inactive) | > 100 µM (inactive) | 26.1 µM (inactive) | > 100 µM (inactive) | > 100 µM (inactive) | > 100 µM | – | > 100 µM (inactive) | > 100 µM (inactive) | > 100 µM (inactive)
13 | NS(=O)(=O)c1nnc(NS(=O)(=O)c2ccc(F)cc2)s1 | – | > 100 µM (inactive) | – | > 100 µM (inactive) | > 100 µM (inactive) | > 100 µM (inactive) | > 100 µM (inactive) | > 100 µM (inactive) | > 100 µM (inactive) | > 100 µM (inactive) | > 100 µM (inactive) | > 100 µM (inactive) | > 100 µM (inactive) | > 100 µM (inactive) | > 100 µM (inactive) | > 100 µM | – | > 100 µM (inactive) | > 100 µM (inactive) | > 100 µM (inactive)
14 | Cc1ccc(S(=O)(=O)n2c3c(c4ccccc42)CCN2C(=O)C(S(=O)(=O)c4ccccc4)=CCC32)cc1 (stereo not given) | 0.239 µM (active) | 0.14 µM (active) | 0.212 µM (active) | 0.217 µM (active) | 0.652 µM (active) | 0.179 µM (active) | 0.158 µM (active) | 0.202 µM (active) | 0.167 µM (active) | 0.191 µM (active) | 0.192 µM (active) | 0.304 µM (active) | 0.0646 µM (active) | 0.327 µM (active) | 0.23 µM (active) | 0.188 µM | 0.233 µM (active) | 0.448 µM (active) | 0.194 µM (active) | –
15 | CCCCCCCCC/C=C1/CC(CO)(COC(=O)C2CCCCC2)OC1=O (stereo not given) | > 100 µM (inactive) | > 100 µM (inactive) | > 100 µM (inactive) | > 100 µM (inactive) | > 100 µM (inactive) | > 100 µM (inactive) | > 100 µM (inactive) | 67.5 µM (inactive) | > 100 µM (inactive) | – | 86.7 µM (inactive) | > 100 µM (inactive) | > 100 µM (inactive) | – | > 100 µM (inactive) | > 100 µM | – | > 100 µM (inactive) | > 100 µM (inactive) | > 100 µM (inactive)
